Read-outs that look alike come from different tables or passages of the source.
Assays:
[1] = test system: Symmetric di-methyl arginine in Z-138 cells; assay: Z-138 methylation assay, ELISA for detection of symmetric di-methyl arginine; format: cell-based; conditions: Homo sapiens
Description: General reagents. […] Iscove's Modified Dulbecco's Medium (IMDM), Horse serum, penicillin-streptomycin, PBS and TMB-ELISA substrate solution were purchased from ThermoFisher Scientific. Symmetric di-methyl arginine antibody was purchased from Cell Signaling Technologies.Anti-SNRPD3/SmD3 antibody was purchased from Sigma-Aldrich.
ELISA for detection of Symmetric di-methyl arginine. […] A compound source plate was prepared by performing ten-point 3-fold dilution in DMSO, such that the final top concentration of the compound was 10 μM, and DMSO was 0.3%. The total volume of compounds added was 20 μL. The cells were incubated for 96 h at 37° C., 5% CO2. Z-138 cells were directly lysed in media with 3× Lysis Buffer (1×: 10 mM HEPES pH7.9, 5 mM MgCl2, 1M NaCl, 0.25M Sucrose, 1% Triton X-100, 1 mM PMSF, Protease & Phosphatase inhibitors). […] Plates were incubated at room temperature for a minimum of 3 h and then washed with PBS-Tween 20 (0.05%). The plates were blocked with 5% BSA at room temperature for 1 h, washed with PBS-Tween 20 and incubated with primary antibody at 4 C overnight.

PRMT5/MEP50 = target: T1, PRMT5/MEP50 (Homo sapiens, UniProt O14744); assay: PRMT5/MEP50 enzyme assay on peptide substrates (3H-SAM Flashplate); format: biochemical; conditions: PRMT5/MEP50 10 nM, H4 1-15aa peptide 100 nM, 3H-SAM 1 μM
T1 construct: Full-length human PRMT5 (NP_006100)
T1 sequence (O14744 whole entry): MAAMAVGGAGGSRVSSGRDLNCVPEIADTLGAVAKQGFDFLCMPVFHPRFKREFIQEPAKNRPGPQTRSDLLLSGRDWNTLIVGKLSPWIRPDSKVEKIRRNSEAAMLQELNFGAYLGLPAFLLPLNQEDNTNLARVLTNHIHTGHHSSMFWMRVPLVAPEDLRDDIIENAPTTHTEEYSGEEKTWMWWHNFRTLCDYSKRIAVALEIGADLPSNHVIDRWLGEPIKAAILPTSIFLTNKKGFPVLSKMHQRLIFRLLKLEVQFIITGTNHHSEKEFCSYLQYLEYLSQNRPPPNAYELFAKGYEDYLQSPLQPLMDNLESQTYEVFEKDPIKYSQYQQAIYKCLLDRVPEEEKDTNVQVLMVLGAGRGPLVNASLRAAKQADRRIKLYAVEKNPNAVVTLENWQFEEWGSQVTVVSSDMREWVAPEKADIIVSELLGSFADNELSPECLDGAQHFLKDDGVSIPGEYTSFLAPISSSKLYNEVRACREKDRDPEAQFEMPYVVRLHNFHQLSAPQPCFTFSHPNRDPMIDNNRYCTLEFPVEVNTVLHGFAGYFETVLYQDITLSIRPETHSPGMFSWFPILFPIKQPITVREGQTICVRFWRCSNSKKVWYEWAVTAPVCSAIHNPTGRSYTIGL
T1 sequence (Q9BQA1 whole entry partner): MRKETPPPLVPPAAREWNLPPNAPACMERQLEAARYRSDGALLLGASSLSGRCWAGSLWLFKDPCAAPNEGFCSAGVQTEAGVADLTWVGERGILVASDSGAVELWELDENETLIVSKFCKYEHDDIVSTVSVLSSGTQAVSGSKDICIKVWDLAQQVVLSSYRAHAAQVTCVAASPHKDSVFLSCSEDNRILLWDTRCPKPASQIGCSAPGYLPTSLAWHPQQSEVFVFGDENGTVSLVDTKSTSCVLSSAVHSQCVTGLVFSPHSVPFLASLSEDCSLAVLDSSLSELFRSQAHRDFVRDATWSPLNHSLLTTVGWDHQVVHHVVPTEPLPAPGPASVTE

Z-138 cells = assay: Z-138 long term proliferation assay (Cell Titer Glo); format: cell-based; conditions: Homo sapiens; for GI50: 192 h, Z-138 cells, cell viability, day 8, read-out: PRMT5 Z138 GI50 Day 8 μM; for IC50: Z-138, 192 h, summary of Table 1, read-out: IC50 value (all the three assays): Z138 GI50 Day 8
Summary of the method: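 Z-138 cells exposed to ten-point 3-fold dilutions (top 10 μM, 0.3% DMSO) for 96 h at 37° C., 5% CO2, then re-dosed for four more days.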

[2] = Z-138, 96 h, summary of Table 1, read-out: IC50 value (all the three assays): Z138 SDMA ELISA Day 4
[3] = Z-138 cells, 96 h (day 4), read-out: PRMT5 Z138 SDMA ELISA Day 4 μM

Row | Compound | IC50 [1, 2] | IC50 [1, 3] | IC50 (PRMT5/MEP50) | GI50 (Z-138 cells) | IC50 (Z-138 cells)
1 | O=C(NC[C@H](O)CN1CCc2ccccc2C1)c1cn2cc(-c3cc(F)cc(F)c3)ccc2n1 [Example 16, (S)-6-(3,5-difluorophenyl)-N-(3-(3,4-dihydroisoquinolin-2(1H)-yl)-2-hydroxypropyl)imidazo[1,2-a]pyridine-2-carboxamide] | 10 to 1000 nM | 10 to 1000 nM | 10 to 1000 nM | 10 to 1000 nM | 10 to 1000 nM
2 | CS(=O)(=O)Nc1ccc2nc(C(=O)NC[C@H](O)CN3CCc4ccccc4C3)cn2c1 [Example 41, (S)—N-(3-(3,4-dihydroisoquinolin-2(1H)-yl)-2-hydroxypropyl)-6-(methylsulfonamido)imidazo[1,2-a]pyridine-2-carboxamide] | – | 10 to 1000 nM | > 5000 nM | 10 to 1000 nM | –
3 | Cn1cc(C2CCc3nc(C(=O)NCC(O)CN4CCc5ccccc5C4)cn3C2)cn1 (stereo not shown) [Example 111, N-(3-(3,4-dihydroisoquinolin-2(1H)-yl)-2-hydroxypropyl)-6-(1-methyl-1H-pyrazol-4-yl)-5,6,7,8-tetrahydroimidazo[1,2-a]pyridine-2-carboxamide] | – | 10 to 1000 nM | 1000 to 5000 nM | 1000 to 5000 nM | –
4 | O=C(NCC(O)CNC1Cc2ccccc2C1)c1cn2cc(C(F)(F)F)ccc2n1 (stereo not shown) [Example 96] | 10 to 1000 nM | 10 to 1000 nM | 10 to 1000 nM | 10 to 1000 nM | 10 to 1000 nM
5 | CCCc1nc(-c2ccc3nc(C(=O)NC[C@H](O)CN4CCc5ccccc5C4)cn3c2)no1 [Example 5, (S)—N-(3-(3,4-dihydroisoquinolin-2(1H)-yl)-2-hydroxypropyl)-6-(5-propyl-1,2,4-oxadiazol-3-yl)imidazo[1,2-a]pyridine-2-carboxamide] | 10 to 1000 nM | 10 to 1000 nM | 10 to 1000 nM | 10 to 1000 nM | 10 to 1000 nM
6 | Cn1ccc(-c2ccc3nc(C(=O)NC[C@H](O)CN4CCc5ccccc5C4)cn3n2)cc1=O [Example 48, (S)—N-(3-(3,4-dihydroisoquinolin-2(1H)-yl)-2-hydroxypropyl)-6-(1-methyl-2-oxo-1,2-dihydropyridin-4-yl)imidazo[1,2-b]pyridazine-2-carboxamide] | 10 to 1000 nM | 10 to 1000 nM | 10 to 1000 nM | 10 to 1000 nM | 10 to 1000 nM
7 | O=C(NC[C@H](O)CN1CCc2ccccc2C1)c1cn2cc(-c3cnn([C@@H]4CCOC4)c3)ccc2n1 [Example 20, N—((S)-3-(3,4-dihydroisoquinolin-2(1H)-yl)-2-hydroxypropyl)-6-(1-((R)-tetrahydrofuran-3-yl)-1H-pyrazol-4-yl)imidazo[1,2-a]pyridine-2-carboxamide] | 10 to 1000 nM | 10 to 1000 nM | 10 to 1000 nM | 10 to 1000 nM | 10 to 1000 nM
8 | O=C(NC[C@H](O)CN1CCc2ccccc2C1)c1cn2cc(C(F)(F)F)ccc2n1 [Example 8, (S)—N-(3-(3,4-dihydroisoquinolin-2(1H)-yl)-2-hydroxypropyl)-6(trifluoromethyl) imidazo[1,2-a]pyridine-2-carboxamide] | 10 to 1000 nM | 10 to 1000 nM | 10 to 1000 nM | 10 to 1000 nM | 10 to 1000 nM
9 | O=C(NCC(O)CN1CCc2ccccc2C1)c1cn2c(n1)CC(c1ccccc1)CC2 (stereo not shown) [Example 109, N-(3-(3,4-dihydroisoquinolin-2(1H)-yl)-2-hydroxypropyl)-7-phenyl-5,6,7,8-tetrahydroimidazo[1,2-a]pyridine-2-carboxamide] | – | 10 to 1000 nM | 1000 to 5000 nM | > 5000 nM | –
10 | Cn1cc(-c2cn3cc(C(=O)NC[C@H](O)CN4CCc5ccccc5C4)nc3cn2)cn1 [Example 45, (S)—N-(3-(3,4-dihydroisoquinolin-2(1H)-yl)-2-hydroxypropyl)-6-(1-methyl-1H-pyrazol-4-yl)imidazo[1,2-a]pyrazine-2-carboxamide] | 10 to 1000 nM | 10 to 1000 nM | 10 to 1000 nM | 10 to 1000 nM | 10 to 1000 nM
11 | O=C(NC[C@H](O)CN1CCc2ccccc2C1)c1cn2cc(C3=CCOCC3)ccc2n1 [Example 19, (S)-6-(3,6-dihydro-2H-pyran-4-yl)-N-(3-(3,4-dihydroisoquinolin-2(1H)-yl)-2-hydroxypropyl)imidazo[1,2-a]pyridine-2-carboxamide] | 10 to 1000 nM | 10 to 1000 nM | 10 to 1000 nM | 10 to 1000 nM | 10 to 1000 nM
12 | O=C(NC[C@H](O)CN1CCc2ccccc2C1)c1cn2cc(C(F)(F)F)cnc2n1 [Example 42] | – | 10 to 1000 nM | 10 to 1000 nM | 1000 to 5000 nM | –
13 | CC1CCc2nc(C(=O)NCC(O)CN3CCc4ccccc4C3)cn2C1 (stereo not shown) [Example 102, N-(3-(3,4-dihydroisoquinolin-2(1H)-yl)-2-hydroxypropyl)-6-methyl-5,6,7,8-tetrahydroimidazo[1,2-a]pyridine-2-carboxamide] | – | 10 to 1000 nM | 1000 to 5000 nM | 10 to 1000 nM | –
14 | Cn1cc(-c2ccc3nc(C(=O)NC[C@H](O)CN4CCc5ccccc5C4)cn3c2)cn1 [Example 13, (S)—N-(3-(3,4-dihydroisoquinolin-2(1H)-yl)-2-hydroxypropyl)-6-(1-methyl-1H-pyrazol-4-yl)imidazo[1,2-a]pyridine-2-carboxamide] | – | 10 to 1000 nM | > 5000 nM | > 5000 nM | –
15 | CO[C@@H]1CCc2nc(C(=O)NC[C@H](O)CN3CCc4ccccc4C3)cn2C1 [Example 107A, (R)—N—((S)-3-(3,4-dihydroisoquinolin-2(1H)-yl)-2-hydroxypropyl)-6-methoxy-5,6,7,8-tetrahydroimidazo[1,2-a]pyridine-2-carboxamide] | – | 10 to 1000 nM | > 5000 nM | 1000 to 5000 nM | –
16 | CC(C)N1CCn2cc(C(=O)NCC(O)CN3CCc4ccccc4C3)nc2C1 (stereo not shown) [Example 113, N-(3-(3,4-dihydroisoquinolin-2(1H)-yl)-2-hydroxypropyl)-7-isopropyl-5,6,7,8-tetrahydroimidazo [1,2-a] pyrazine-2-carboxamide] | – | 1000 to 5000 nM | > 5000 nM | > 5000 nM | –
17 | O=C(NC[C@H](O)CN1CCc2ccccc2C1)c1cn2c(n1)COC(c1ccccc1)C2 (stereo partly drawn) [Example 112, N—((S)-3-(3,4-dihydroisoquinolin-2(1H)-yl)-2-hydroxypropyl)-6-phenyl-5,6-dihydro-8H-imidazo[2,1-c][1,4]oxazine-2-carboxamide] | – | 10 to 1000 nM | 1000 to 5000 nM | 1000 to 5000 nM | –
18 | O=C(NC[C@H](O)CN1CCc2ccccc2C1)c1cn2c(n1)CC[C@H](C(F)(F)F)C2 [Example 121B, (S)—N—((S)-3-(3,4-dihydroisoquinolin-2(1H)-yl)-2-hydroxypropyl)-6-(trifluoromethyl)-5,6,7,8-tetrahydroimidazo[1,2-a]pyridine-2-carboxamide] | – | 10 to 1000 nM | 1000 to 5000 nM | 10 to 1000 nM | –
19 | O=C(NC[C@H](O)CN1CCc2ccccc2C1)c1cn2cc(-c3ccc(F)cc3)ccc2n1 [Example 17, (S)—N-(3-(3,4-dihydroisoquinolin-2(1H)-yl)-2-hydroxypropyl)-6-(4fluorophenyl) imidazo[1,2-a]pyridine-2-carboxamide] | 10 to 1000 nM | 10 to 1000 nM | 10 to 1000 nM | 10 to 1000 nM | 10 to 1000 nM
20 | CN(C[C@H](O)CN1CCc2ccccc2C1)C(=O)c1cn2cc(-c3ccn(C)c(=O)c3)ncc2n1 [Example 93, (R)—N-(3-(3,4-dihydroisoquinolin-2(1H)-yl)-2-hydroxypropyl)-N-methyl-6-(1-methyl-2-oxo-1,2-dihydropyridin-4-yl)imidazo[1,2-a]pyrazine-2-carboxamide] | – | 10 to 1000 nM | 10 to 1000 nM | 1000 to 5000 nM | –
21 | O=C(NC[C@H](O)CN1CCc2ccccc2C1)c1cn2c(n1)CCC(c1ccc(F)cc1)C2 (stereo partly drawn) [Example 115, N—((S)-3-(3,4-dihydroisoquinolin-2(1H)-yl)-2-hydroxypropyl)-6-(4-fluorophenyl)-5,6,7,8-tetrahydroimidazo[1,2-a]pyridine-2-carboxamide] | 10 to 1000 nM | 10 to 1000 nM | 10 to 1000 nM | 10 to 1000 nM | 10 to 1000 nM
22 | N#Cc1ccc(-c2ccc3nc(C(=O)NC[C@H](O)CN4CCc5ccccc5C4)cn3c2)cc1 [Example 14, (S)-6-(4-cyanophenyl)-N-(3-(3,4-dihydroisoquinolin-2(1H)-yl)-2-hydroxypropyl) imidazo[1,2-a]pyridine-2-carboxamide] | 10 to 1000 nM | 10 to 1000 nM | 10 to 1000 nM | 10 to 1000 nM | 10 to 1000 nM
